Reference: patent publication US9388405B2, “Method for identifying a subpopulation of mammalian cells with distinctive ribosome translation profiles” (priority 2009, dated 2016)

Columns and labels:
Format in all cases: cell-based, human
[1] = system: MCF7 CMV-fLuc subclones #44 and #48; assay: PKC activator dose response, cap-dependent translation (fLuc); settings: single-Toxin, 6 hr
Method: Following 6 hr exposure to the Single-Toxin TPA assay, cells were lysed and fLuc protein activity measured using a standard microplate reader assay. The raw values were averaged and expressed as the ratio of treated to untreated samples (Fold Induction).
Dashed lines represent translational response levels produced by a 100 nM TPA Single-Toxin assay. The Bryostatin 1 concentrations (top panel) encompassed the TPA concentrations used in FIG. 27A. […] The Bryostatin 2 dose response curve (bottom panel) employed higher drug concentrations (the maximal tested dose was 5× the largest TPA and Bryostatin 1 amounts). At the highest tested dose (2.5 uM), Bryostatin 2 produced fLuc activity consistent with the level observed with 100 nM TPA.
In addition to measuring cap-dependent and cap-independent translational effects, Class-specific translational activity and toxin-defined actions, the previously described materials and methods allow for a variety of applications designed to detect and characterize agents and processes that regulate ribosome activity. In this example, comparative dose response assays were used to detect cap-dependent and cap-independent translational regulation in MCF7 cells. The basis for this application was the observation that distinct translational responses are produced by compounds at different doses. When an assortment of compounds act on a common molecular target, they can be grouped into a genus of related drugs. By comparing individual species of a compound genus over a defined dose range, differences in translational regulation can be defined. Furthermore, these translational differences can often be linked to biological differences.
In this example (FIG. 27), the three PKC activators produced similar dose response trends in cap-dependent assays. […] However, macrolide lactones produced translational increases that were generally 60-70% of the TPA translational response (FIG. 27B). In fact, a 25 fold increase in Bryostatin 2 concentration (2.5 uM) was needed to produce a translational magnitude similar to the 100 nM TPA assay (FIG. 27B).

[2] = system: MCF7 mTRdm-fLuc subclones #8, #27, and #45; assay: PKC activator dose response, cap-independent TR translation (fLuc); settings: single-Toxin, 6 hr
Method: Following 6 hr culture with a TPA single-Toxin assay, cells were lysed and fLuc protein activity measured using a standard microplate reader assay. The plate reader values were averaged and expressed as the ratio of treated to untreated samples (Fold Induction).
As with FIG. 27B, dashed lines represent translational response levels achieved by the 100 nM TPA assay in each cell line. […] A further difference between the cap-dependent and cap-independent assays was the observation that increased Bryostatin 2 concentrations (5× the maximal TPA dose) never produced fLUC activity equivalent to the 100 nM TPA assay. Thus, the Toxin Assay procedure can detect a statistically significant difference in cap-dependent and cap-independent translation in compounds that activate PKC activity.
In the cap-independent assays, a similar dose response trend was observed over a 1 nM to 250 nM range with a translational peak at a 100 nM dose. However, the magnitude of the Bryostatin increases were generally 30% of 100 nM TPA response.

HCT116 mTRdm-fLUC cells = assay: 5-Assay / 15-Assay toxin assays, fLUC plate reader (Fold Induction)
Method: The 5-Assay and 15-Assay procedures were applied to cellular pools using either of two growth procedures (e.g. a Cell Count or Confluence growth assay). For a Cell Count assay, cells from the P1 pool dish were counted and passed into a white clear bottom 96-well microtiter tray at a density of 25,000 cells per well; the leftover cells were passed into a passage 2 (P2) dish. Cells in the microtiter plate were allowed to grow for about 40 hr to achieve a ˜75% cell confluence prior to incubation with a toxic agent. Then cells in a microtiter plate were treated with complete growth medium containing either no toxin or an optimal toxin, defined as a single or multiple toxin assay that produces a maximal translational response (taken from Table 3) and incubated for 6 hours at 37° C. Each treatment was performed on triplicate wells.
After toxin incubation, cells were examined by phase contrast microscopy for signs of detachment. If more than ˜10% of cells were detached, the 96-well plates were centrifuged at 1200 rpm for 3 min to pellet the detached cells. The media were removed and replaced with 50 μL of Cell Lysis Buffer (25 mM Tris-phosphate (pH7.8), 10% glycerol, 1% Triton X-100, 1 mg/ml BSA, 2 mM EGTA and 2 mM DTT). Cells were incubated with the Cell Lysis Buffer for 10 min at RT and cell lysis was verified using a phase contrast microscope. To ensure complete lysis, the lysates were vigorously agitated using the multichannel pipettor. Any air bubbles formed as a result of agitation were manually removed with a syringe needle. Luminescence was measured using the FLUOstar Optima (BMG Labtech) microplate reader. To develop luminescence, wells were injected with 5 μL of the D-luciferin solution dissolved in Reaction Buffer (25 mM Glycylglycine (pH 7.8), 15 mM MgSO4, 4 mM EDTA, 15 mM Potassium phosphate, 1 mM DTT, 1 mM Coenzyme A, 6.7 mM ATP and 3.35 mM D-luciferin). After 4 sec with shaking, luminescence values were measured using the lens filter at gains of 2500-4000.
Light values were converted to Fold Induction using the ratio of values produced by treated and untreated cells. The maximal TR-specific translational response produced by the 5-Toxin or 15-Toxin assay was used to assign an optimal toxin assay (maximal translational response) which was subsequently used to screen subclones derived from this pool and to assign a Class designation. […]
In one test, the 5-Assay procedure (Table 3) was applied to HCT116 mTRdm-fLUC 12-16 subclone #30 cells (FIG. 1A). […] Samples were then processed with Lysis buffer and read in a plate reader. […]
Triplicate samples of HCT116 mTRdm-fLUC 12-16 Sub#30 cells were cultured with the two-Toxin assays using a standard plate reader protocol (FIG. 1C). […]

[3] = system: HEK293 CMV-fLuc subclone #3; assay: Updated 15-Assay / 21-Assay, cap-dependent translational responses; settings: Updated 15-Assay two-Toxin with 100 nM TPA, cap-dependent
Description: (§1) The dashed line represents the level of translational response in the untreated samples.
Following 6 hr exposure to the compounds, cells were lysed and fLuc protein activity measured using a standard microplate reader assay. The triplicate plate reader values were averaged and expressed as the ratio of treated to untreated samples (Fold Induction). The dashed line represents the level of translational response in the untreated samples.
(§2) The 21-Assay procedure employs the same standard toxins as the Updated 15-Assay protocol. The extra 6 assays involve an unknown or an uncharacterized compound and its pairwise combinations with the five toxins: Unknown, Unknown+TPA, Unknown+Colchcine, Unknown+Bortezomib (Velcade), Unknown+Low dose Calon, and Unknown+Hycamtin (Topotecan).
Application of single-Toxin and two-Toxin assays in the Updated 15-Assay protocol was used to define cap-dependent translational responses in the HEK293 CMV-fLuc #3 subclone (FIG. 30A).
The combinatorial process described in this example provides a system for testing translational regulation by unknown compounds. In this example, a 21-Assay setup is described that employs the single and pairwise combinatorial application of 5 toxins, as in a standard 15-Toxin assay, and the addition of a sixth substance. Inclusion of the sixth substance requires the expansion of the assay group to a total of 21 single- and two-Toxin assays. For this example, a control substance (taxol) was selected from the original 15-Assay system.

[4] = system: MCF7 CMV-fLuc subclone #65; assay: Topoisomerase 1 inhibitor single-Toxin and two-Toxin (100 nM TPA) dose response, cap-dependent; settings: 10 nM to 10 uM
Method: FIG. 28A illustrates a dose response assay of the MCF7 CMV-fLuc subclone #65 treated with varying doses (10 nM to 10 uM range) of the following Topoisomerase 1 inhibitors: camptothecin, topotecan, irinotecan, and rubitecan. Following a 6 hr incubation in a single-Toxin assay, cells were lysed and fLuc protein activity measured using a standard microplate reader assay. The plate reader values were averaged and expressed as the ratio of treated to untreated samples (Fold Induction). The dashed line represents the level of translational response in untreated cell samples.
FIG. 28B illustrates the use of a Combinatorial Assay to examine the effects of Topoisomerase 1 inhibitors on cap-dependent translation. A series of dose response assays were performed on the MCF7 CMV-fLuc subclone #65 using varying doses of the Topoisomerase 1 inhibitors (10 nM to 10 uM range) in a Two-Toxin assay with a constant 100 nM TPA dose. The plate reader values were averaged and expressed as the ratio of treated to untreated samples (Fold Induction). The dashed line represents the level of translational response in untreated samples.
FIG. 28A illustrates a cap-dependent dose response assay of MCF7 cells treated with varying dosages (10 nM to 10 uM range) of the following TopoI inhibitors: camptothecin, topotecan, irinotecan, and rubitecan. […] While the altered irinotecan response might have been predicted based on its metabolic requirements, the lack of topotecan action on cap-dependent translation in the single-Toxin assays was unexpected.
Since similar doses inhibited translation in the single-Toxin assays (FIG. 28A), this effect might have represented a direct effect on translation.

[5] = system: HEK293 mTRdm-fLuc subclone #13 and HEK293 hTRdm-gLuc subclone #79; assay: Updated 15-Assay / 21-Assay, TR translational responses (fLuc, gLuc); settings: Updated 15-Assay, High Dose 10 uM, single- and two-Toxin
Method: as §1
As before, secreted Gaussia Luciferase (gLUC) activity was measured in conditioned media 6 hr after drug application and protein activity expressed as the ratio of treated to untreated samples (Fold Induction). The dashed line represents the translational response in untreated cells.
The dashed line represents the translational response produced by untreated cell samples.
Following a 6 hr culture time, secreted gLuc activity was measured in conditioned media using a standard microplate reader assay and expressed as the ratio of treated to untreated samples (Fold Induction). The dashed line represents the level of translational response in the untreated samples. Given that the gLuc protein is secreted into the media, it escapes the cytoplasmic protein turnover processes acting on the fLUC protein. Therefore, any difference in the apparent TR response is a likely result of variation in reporter protein synthesis, secretion or reduced protein turnover.
as §2, with “(Topotecan). […]” for “(Topotecan).”

[6] = system: MCF7 mTRdm-fLuc subclone #27; assay: Topoisomerase 1 inhibitor single-Toxin and two-Toxin (100 nM TPA) dose response, cap-independent
Method: FIG. 28C illustrates the use of single-Toxin Assays to measure the effects of Topoisomerase 1 inhibitors on cap-independent translation in MCF7 cells. Triplicate samples of the MCF7 mTRdm-fLuc subclone #27 were treated with varying concentrations (10 nM to 10 uM range) of the Topoisomerase 1 inhibitors; camptothecin, rubitecan, irinotecan and topotecan. The plate reader values were averaged and expressed as the ratio of treated to untreated samples (Fold Induction). The dashed line represents the level of translational response in untreated controls.
FIG. 28D illustrates the use of a two-Toxin Combinatorial Assay on the MCF7 mTRdm-fLuc subclone #27 treated with 100 nM TPA plus varying doses (10 nM to 10 uM range) of the Topoisomerase 1 inhibitors. The plate reader values were averaged and expressed as the ratio of treated to untreated samples (Fold Induction). The dashed line represents the level of translational response in untreated samples. All four inhibitors acted synergistically with TPA to increase protein activity in the 10 nM two-Toxin assay.
FIG. 28D illustrates the use of a two-Toxin dose response assay using varying dosages of the TopoI inhibitors in combination with the 100 nM TPA translational activator. All four inhibitors acted synergistically with TPA at low doses to increase protein translation. At concentrations higher than 100 nM, camptothecin, rubitecan, and topotecan antagonized the TPA response and reduced the fLUC expression.

## CCCCCCCCCCCCCC(=O)O[C@@H]1[C@@H](C)[C@@]2(O)[C@@H](C=C(CO)C[C@]3(O)C(=O)C(C)=C[C@@H]23)[C@@H]2C(C)(C)[C@]12OC(C)=O [TPA, 12-O-tetradecanoylphorbol-13-acetate]
[1]
  dose giving maximal reporter level (translational peak): 100 nM
[2]
  dose giving peak fLuc protein activity: 100 nM
HCT116 mTRdm-fLUC cells; 5-Assay, 6 hr, HCT116 mTRdm-fLUC 12-16 subclone #38
  TR-specific toxin response: Maximal TR-specific toxin responses
HCT116 mTRdm-fLUC cells; 5-Assay, TPA single-Toxin 100 nM, 6 hr, HCT116 mTRdm-fLUC 12-16 subclone #30
  increase in reporter activity (maximal TR-specific response): 800-1200%

## CC(C)C[C@H](NC(=O)[C@H](Cc1ccccc1)NC(=O)c1cnccn1)B(O)O [Velcade, [(1R)-3-methyl-1-[[(2S)-1-oxo-3-phenyl-2-[(pyrazinylcarbonyl)amino]propyl]amino]butyl] boronic acid]
[3]
  effect on the TPA response: TPA response was antagonized

## CNc1ccc2oc(C[C@H]3O[C@@]4(CC[C@H]3C)O[C@H]([C@H](C)C(=O)c3ccc[nH]3)[C@H](C)C[C@H]4C)nc2c1C(=O)O [calcimycin, Calcimycin]
[3]
  effect on the TPA response: TPA response was antagonized

## CCCC(=O)Nc1ncnc2c1ncn2[C@@H]1O[C@@H]2COP(=O)(O)O[C@H]2[C@H]1OC(=O)CCC [dbcAMP, Dibutyryl-cyclic AMP]
HCT116 mTRdm-fLUC cells; dbcAMP single-Toxin assay, HCT116 mTRdm-fLUC transformed subclones
  translational response: minimal translational response

## CC[C@@]1(O)C(=O)OCc2c1cc1n(c2=O)Cc2cc3c(CN(C)C)c(O)ccc3nc2-1.Cl [topotecan, (S)-10-[(dimethylamino)methyl]-4-ethyl-4,9-dihydroxy-1H-pyrano[3′,4′:6,7]indolizino[1,2-b]quinoline-3,14(4H,12H)-dione monohydrochloride]
[4]; single-Toxin
  effect on cap-dependent translation: neither topotecan or irinotecan significantly altered cap-dependent translation
[4]; two-Toxin with constant 100 nM TPA, cap-dependent
  effect on TPA-specific translational response: showed only the TPA inhibitory effect at high doses (i.e. 5 uM and 10 uM)
[5]
  effect on translation: inhibitory effect of Topotecan (HD) was evident in all Single- and two-Toxin assays
[6]; single-Toxin, 10 nM to 10 uM
  effect on cap-independent translation: exhibited reduced fLUC activity at higher doses (5 uM and 10 uM)
[6]; two-Toxin with 100 nM TPA, 10 nM to 10 uM
  effect on TPA activity: antagonized the TPA activity and exhibited reduced fLUC expression
[6]; two-Toxin with 100 nM TPA, highest dose
  fLUC expression at the highest dose: basal level expression
[3]
  effect on the TPA response: TPA response was antagonized
